In general, IC50 refers to the concentration needed to halve the response being measured.

Eight compounds from ChEMBL document CHEMBL3352754, “Bicyclic tetrapeptides as potent HDAC inhibitors: effect of aliphatic loop position and hydrophobicity on inhibitory activity” (Bioorg Med Chem, 2014) can be followed below.

The target in one series is Histone deacetylase 1 (Homo sapiens, UniProt Q13547). Briefly: Inhibition of human HDAC1 expressed in HEK293T cells assessed as aminomethyl coumarin release using Ac-KGLGK(Ac)-MCA) substrate after 30 mins by FLIPR method. The format is cell-based, HEK-293T.
Histone deacetylase 1, sequence (Q13547 whole entry, the tested form may be a part): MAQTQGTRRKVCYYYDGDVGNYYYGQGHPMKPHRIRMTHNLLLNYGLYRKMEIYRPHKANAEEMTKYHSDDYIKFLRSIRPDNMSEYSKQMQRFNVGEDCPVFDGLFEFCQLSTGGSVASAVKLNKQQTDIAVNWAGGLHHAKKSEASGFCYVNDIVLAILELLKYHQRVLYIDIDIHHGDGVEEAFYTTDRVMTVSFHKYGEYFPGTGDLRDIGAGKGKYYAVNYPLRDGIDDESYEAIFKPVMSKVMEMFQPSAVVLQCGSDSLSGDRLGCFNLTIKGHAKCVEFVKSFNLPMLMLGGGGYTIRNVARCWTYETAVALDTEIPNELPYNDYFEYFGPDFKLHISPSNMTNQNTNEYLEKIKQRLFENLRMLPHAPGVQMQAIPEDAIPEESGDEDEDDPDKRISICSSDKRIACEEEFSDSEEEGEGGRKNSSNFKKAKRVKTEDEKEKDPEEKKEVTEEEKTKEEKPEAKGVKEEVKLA
Another series concerns Mv1Lu. Briefly: Inhibition of HDAC in mink Mv1Lu cells expressing human wild-type p21 promoter luciferase fusion plasmid assessed as drug level inducing 10-fold higher luciferase activity by p21 promoter assay relative to baseline. The format is cell-based. The note with it: Neovison vison.
Series [1] in a line: Selectivity index, ratio of IC50 for mouse HDAC6 to IC50 for human HDAC1.
For another series, the target named is Histone deacetylase 4 (Homo sapiens, UniProt P56524). Briefly: Inhibition of human HDAC4 expressed in HEK293T cells assessed as aminomethyl coumarin release using Ac-KGLGK(Ac)-MCA) substrate after 30 mins by FLIPR method. The format is cell-based. Particulars: hek-293t.
Histone deacetylase 4, sequence (P56524 whole entry): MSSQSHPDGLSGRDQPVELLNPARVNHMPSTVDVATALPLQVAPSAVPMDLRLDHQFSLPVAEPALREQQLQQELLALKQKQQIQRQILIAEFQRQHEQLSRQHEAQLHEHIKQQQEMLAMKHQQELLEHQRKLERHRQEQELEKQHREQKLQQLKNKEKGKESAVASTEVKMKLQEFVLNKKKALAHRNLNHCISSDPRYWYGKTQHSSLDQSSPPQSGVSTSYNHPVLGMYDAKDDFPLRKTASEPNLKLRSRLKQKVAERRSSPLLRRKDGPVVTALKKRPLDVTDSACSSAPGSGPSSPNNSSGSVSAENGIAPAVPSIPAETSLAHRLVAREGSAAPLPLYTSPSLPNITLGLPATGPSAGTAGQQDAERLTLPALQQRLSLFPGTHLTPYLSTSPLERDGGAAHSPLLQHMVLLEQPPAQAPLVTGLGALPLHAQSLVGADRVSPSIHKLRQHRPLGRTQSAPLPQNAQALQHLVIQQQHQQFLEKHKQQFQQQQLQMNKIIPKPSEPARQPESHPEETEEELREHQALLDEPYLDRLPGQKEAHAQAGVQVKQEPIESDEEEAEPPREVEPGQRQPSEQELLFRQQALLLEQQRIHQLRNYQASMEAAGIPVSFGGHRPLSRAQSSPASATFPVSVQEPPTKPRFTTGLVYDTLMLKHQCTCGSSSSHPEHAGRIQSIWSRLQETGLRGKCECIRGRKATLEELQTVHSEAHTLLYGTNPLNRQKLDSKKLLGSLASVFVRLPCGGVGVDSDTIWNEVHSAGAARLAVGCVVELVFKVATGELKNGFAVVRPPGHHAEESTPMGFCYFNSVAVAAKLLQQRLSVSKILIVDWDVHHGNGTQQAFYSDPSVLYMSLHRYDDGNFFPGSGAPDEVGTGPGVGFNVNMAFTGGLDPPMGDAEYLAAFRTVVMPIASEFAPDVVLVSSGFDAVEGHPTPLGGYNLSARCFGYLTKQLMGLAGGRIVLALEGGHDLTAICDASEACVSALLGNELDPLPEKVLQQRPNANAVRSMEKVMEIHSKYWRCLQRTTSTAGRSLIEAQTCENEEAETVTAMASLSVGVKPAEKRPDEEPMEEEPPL
The target in series [2] is T1, Protein deacetylase HDAC6 (Mus musculus, UniProt Q9Z2V5).
T1 sequence (Q9Z2V5 whole entry): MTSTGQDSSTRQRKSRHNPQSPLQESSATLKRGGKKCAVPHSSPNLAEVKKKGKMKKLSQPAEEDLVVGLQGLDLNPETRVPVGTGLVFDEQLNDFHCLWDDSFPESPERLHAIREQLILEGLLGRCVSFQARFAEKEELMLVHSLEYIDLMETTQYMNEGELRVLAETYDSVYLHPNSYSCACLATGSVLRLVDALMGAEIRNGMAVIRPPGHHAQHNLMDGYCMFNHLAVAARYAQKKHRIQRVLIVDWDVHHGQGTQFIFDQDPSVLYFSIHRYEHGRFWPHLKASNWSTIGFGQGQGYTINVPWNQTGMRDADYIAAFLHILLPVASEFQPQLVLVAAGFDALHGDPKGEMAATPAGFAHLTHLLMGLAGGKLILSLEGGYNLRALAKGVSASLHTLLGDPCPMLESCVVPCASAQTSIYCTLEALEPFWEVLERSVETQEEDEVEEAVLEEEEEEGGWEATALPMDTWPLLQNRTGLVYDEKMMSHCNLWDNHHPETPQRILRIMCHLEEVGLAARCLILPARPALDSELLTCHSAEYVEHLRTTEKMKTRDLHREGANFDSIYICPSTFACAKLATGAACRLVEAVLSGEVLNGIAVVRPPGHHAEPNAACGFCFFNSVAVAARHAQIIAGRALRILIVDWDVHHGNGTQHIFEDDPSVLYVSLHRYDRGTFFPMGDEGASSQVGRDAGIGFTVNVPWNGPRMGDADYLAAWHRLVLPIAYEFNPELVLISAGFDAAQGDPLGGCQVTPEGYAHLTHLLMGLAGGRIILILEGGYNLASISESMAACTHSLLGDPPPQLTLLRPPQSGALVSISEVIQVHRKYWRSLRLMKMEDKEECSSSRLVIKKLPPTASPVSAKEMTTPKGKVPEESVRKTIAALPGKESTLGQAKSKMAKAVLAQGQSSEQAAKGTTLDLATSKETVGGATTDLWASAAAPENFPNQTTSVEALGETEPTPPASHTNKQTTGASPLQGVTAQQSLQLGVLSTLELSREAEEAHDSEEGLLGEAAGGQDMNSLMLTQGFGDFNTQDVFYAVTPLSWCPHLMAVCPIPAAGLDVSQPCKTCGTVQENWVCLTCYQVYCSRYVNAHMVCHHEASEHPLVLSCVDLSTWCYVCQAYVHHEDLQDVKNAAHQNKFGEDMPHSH
The experiment in a line: Inhibition of mouse HDAC6 expressed in HEK293T cells assessed as aminomethyl coumarin release using Ac-KGLGK(Ac)-MCA) substrate after 30 mins by FLIPR method. The format is cell-based, HEK-293T.

Series [3] is described as follows: Retention time by HPLC method. The format is physicochemical.

Square brackets hold non-standard residues; d marks the D form. Peptide text beside a SMILES is read from it. * marks the point of attachment. Asu = N[C@@H](CCCCCC(=O)O)C(=O)O; NHOH = ON*

Consider `CC[C@H](C)[C@@H]1NC(=O)[C@@H](Cc2ccc(OC)cc2)NC(=O)[C@H](CCCCCC(=O)NO)NC(=O)[C@H]2CCCN2C1=O` (cyclo([Asu](NHOH)[dY](Me)I[dP])), for which the IC50 on Histone deacetylase 1 was determined as 0.4 nM; on Histone deacetylase 4 it was 3 nM; in series [2], 13 nM. In addition, the EC1000 in the series with Mv1Lu came to 22 nM. In addition, in series [1], the Ratio IC50 amounted to 32.5.
In series [3], `O=C(CCCCC[C@@H]1NC(=O)[C@H]2CCCCCCCCCC[C@H](NC(=O)[C@H]3CCCN3C1=O)C(=O)N2)NO` displayed a Retention_time of 7.06 min. Besides, the figures for the IC50 (at Histone deacetylase 1; at Histone deacetylase 4; in series [2]) were 25 nM, 31 nM and 490 nM, respectively. Also, in the series on Mv1Lu, the EC1000 is 58 nM. Also, the Ratio IC50 in series [1] amounted to 19.6.
Compound `O=C(CCCCC[C@@H]1NC(=O)[C@H]2CCCN2C(=O)[C@@H]2CCOCCCCOCC[C@@H](NC1=O)C(=O)N2)NO` yielded a Retention_time in series [3] of 4.31 min. Besides, the IC50 at Histone deacetylase 1 was 31 nM; at Histone deacetylase 4, 41 nM; in series [2], 240 nM. In addition, in the series on Mv1Lu, the EC1000 came to 2200 nM. Further, in series [1], the Ratio IC50 turned out to be 7.7.
For the compound `O=C(CCCCC[C@@H]1NC(=O)[C@H]2CCCN2C(=O)[C@@H]2CCCCCCCCCC[C@@H](NC1=O)C(=O)N2)NO`, the Retention_time in series [3] was 6.03 min. Moreover, the EC1000 with Mv1Lu turned out to be 7.2 nM. For the same compound, the Ratio IC50 in series [1] came out at 45.1. For the same compound, in series [2], the IC50 stood at 410 nM.
`CCCCC[C@@H]1NC(=O)[C@H](CCCCCC(=O)NO)NC(=O)[C@H]2CCCN2C(=O)[C@H](CCCCC)NC1=O` returned a Retention_time in series [3] of 6.55 min. Moreover, the IC50 on Histone deacetylase 1 worked out at 37 nM; on Histone deacetylase 4 it was 15 nM; in series [2], 140 nM. The EC1000 in the series on Mv1Lu was 80 nM. For the same compound, in series [1], the Ratio IC50 was 3.7.
For the compound `CCCCC[C@@H]1NC(=O)[C@@H](CCCCC)NC(=O)[C@H](CCCCCC(=O)NO)NC(=O)[C@H]2CCCN2C1=O`, the Retention_time in series [3] stood at 7.51 min. The EC1000 in the series with Mv1Lu turned out to be 13 nM. Moreover, in series [1], the Ratio IC50 came to 13.6. The IC50 in series [2] amounted to 340 nM.
`O=C(CCCCC[C@@H]1NC(=O)[C@H]2CCCN2C(=O)[C@@H]2CCCCCCCCCC[C@H](NC1=O)C(=O)N2)NO` displayed a Retention_time in series [3] of 5.8 min. The IC50 on Histone deacetylase 1 amounted to 25 nM; on Histone deacetylase 4 it was 26 nM; in series [2], 230 nM. For the same compound, the EC1000 in the series on Mv1Lu is 510 nM. Besides, the Ratio IC50 in series [1] amounted to 9.2.
Take `CCCCC[C@@H]1NC(=O)[C@H]2CCCN2C(=O)[C@H](CCCCCC(=O)NO)NC(=O)[C@@H](CCCCC)NC1=O`: the Retention_time in series [3] turned out to be 7.67 min. The IC50 was 43 nM at Histone deacetylase 1, 43 nM on Histone deacetylase 4 and 570 nM in series [2]. For the same compound, the EC1000 in the series on Mv1Lu was 80 nM. For the same compound, the Ratio IC50 in series [1] stood at 13.3.
